Source: article PMC11950852, “Diversity Scale of Library Matters: Impact of mRNA Library Diversity Scales on the Discovery of Macrocyclic Peptides Targeting a Protein by the RaPID System” (ACS Central Science, 2025)
Where a SMILES comes first, the peptide text is derived from it. Bridges are numbered along the chain shown (N, C = ends). Where no end group is shown, it is not given here. [ ]: non-standard residue; d: D form.

What was measured:
[1] = target: Fc-fused MET (His-/hFc-tagged human MET ectodomain) (Homo sapiens, UniProt P08581); assay: SPR binding kinetics of selected macrocyclic peptides to Fc-fused MET; conditions: for Kd: 1:1 binding model; for kon: pH 7.4, read-out: ka
[2] = target: T1, ectodomain of MET fused to Fc (UniProt P08581 25-932); assay: SPR
T1 chain: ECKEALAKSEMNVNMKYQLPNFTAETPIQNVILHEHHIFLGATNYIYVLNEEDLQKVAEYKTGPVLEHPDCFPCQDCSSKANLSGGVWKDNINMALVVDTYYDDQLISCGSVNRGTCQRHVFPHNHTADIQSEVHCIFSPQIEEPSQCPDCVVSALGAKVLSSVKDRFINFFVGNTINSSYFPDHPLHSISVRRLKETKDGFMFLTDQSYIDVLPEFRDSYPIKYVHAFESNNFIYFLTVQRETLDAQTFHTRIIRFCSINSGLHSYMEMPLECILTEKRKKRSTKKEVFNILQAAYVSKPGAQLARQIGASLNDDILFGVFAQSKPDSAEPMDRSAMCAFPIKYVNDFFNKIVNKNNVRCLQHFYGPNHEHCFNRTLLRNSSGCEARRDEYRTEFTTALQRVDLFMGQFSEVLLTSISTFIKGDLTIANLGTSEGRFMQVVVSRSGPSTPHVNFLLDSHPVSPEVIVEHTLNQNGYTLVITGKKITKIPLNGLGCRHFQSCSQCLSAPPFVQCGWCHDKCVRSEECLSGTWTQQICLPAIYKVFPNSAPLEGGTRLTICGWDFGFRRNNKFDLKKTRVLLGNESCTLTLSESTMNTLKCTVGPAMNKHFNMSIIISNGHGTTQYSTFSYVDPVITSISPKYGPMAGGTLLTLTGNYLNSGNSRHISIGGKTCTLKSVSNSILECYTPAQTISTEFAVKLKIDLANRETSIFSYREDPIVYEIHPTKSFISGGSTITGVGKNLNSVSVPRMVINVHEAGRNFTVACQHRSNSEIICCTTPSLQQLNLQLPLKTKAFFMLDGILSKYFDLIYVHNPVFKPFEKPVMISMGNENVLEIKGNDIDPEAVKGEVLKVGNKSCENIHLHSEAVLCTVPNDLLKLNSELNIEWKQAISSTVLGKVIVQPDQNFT

## CC(C)[C@@H]1NC(=O)[C@H](CCC(=O)O)NC(=O)[C@H](Cc2c[nH]cn2)NC(=O)[C@H]([C@@H](C)O)NC(=O)[C@H](CCCNC(=N)N)NC(=O)[C@H](CCCNC(=N)N)NC(=O)[C@H](CC(N)=O)NC(=O)[C@H](Cc2ccccc2)NC(=O)[C@H](CCC(N)=O)NC(=O)[C@H](CCCNC(=N)N)NC(=O)[C@@H](Cc2ccc(O)cc2)NC(=O)CSC[C@@H](C(=O)NCC(N)=O)NC(=O)[C@H](CC(=O)O)NC(=O)[C@H](CCCNC(=N)N)NC(=O)[C@H](CC(N)=O)NC(=O)[C@H](Cc2c[nH]c3ccccc23)NC1=O [aMD4, reference compound] ({CH2CO}-[dY]RQFNRRTHEVWNRDCG-NH2; thioether N-16)
[1]; SPR conditions as E1
  Kd: 3.67 nM
  kd: 0.00676 s⁻¹
[1]
  kon: 1.84e+06 M⁻¹ s⁻¹

## CC(C)C[C@@H]1NC(=O)[C@H](CO)NC(=O)[C@H](Cc2c[nH]c3ccccc23)NC(=O)[C@H](CC(N)=O)NC(=O)[C@H](CCCCN)NC(=O)[C@H](CO)NC(=O)[C@H](CC(=O)O)NC(=O)[C@H](Cc2ccccc2)NC(=O)[C@H](CCC(=O)O)NC(=O)[C@H](CO)NC(=O)[C@H](Cc2c[nH]c3ccccc23)NC(=O)[C@H](CO)NC(=O)[C@H](CC(C)C)NC(=O)[C@H](Cc2ccc(O)cc2)NC(=O)CSC[C@@H](C(=O)NCC(N)=O)NC(=O)[C@H](Cc2ccc(O)cc2)NC(=O)[C@H](C)NC1=O [14-3] ({CH2CO}-YLSWSEFDSKNWSLAYCG-NH2; thioether N-17)
[1]; SPR conditions as E1
  kd: 0.00297 s⁻¹
[1]
  kon: 84900 M⁻¹ s⁻¹

## CC(C)[C@@H]1NC(=O)[C@H](CC(N)=O)NC(=O)CNC(=O)[C@H](CO)NC(=O)[C@H](Cc2c[nH]c3ccccc23)NC(=O)[C@H](CO)NC(=O)[C@H](Cc2ccc(O)cc2)NC(=O)[C@H](Cc2ccc(O)cc2)NC(=O)CSC[C@@H](C(=O)NCC(N)=O)NC(=O)[C@H](CO)NC(=O)[C@H](CC(N)=O)NC(=O)[C@H](Cc2c[nH]c3ccccc23)NC(=O)[C@H](CCCCN)NC(=O)[C@H](C(C)C)NC(=O)[C@H](CO)NC(=O)[C@H](CCC(=O)O)NC(=O)[C@H](CO)NC1=O [12-2] ({CH2CO}-YYSWSGNVSESVKWNSCG-NH2; thioether N-17)
[1]; SPR conditions as E1
  kd: 0.00413 s⁻¹
[1]
  kon: 476000 M⁻¹ s⁻¹

## CC(C)C[C@@H]1NC(=O)[C@H](Cc2ccc(O)cc2)NC(=O)[C@H](CCC(=O)O)NC(=O)[C@H](CC(=O)O)NC(=O)[C@H](CCCNC(=N)N)NC(=O)[C@H](Cc2ccc(O)cc2)NC(=O)[C@H](Cc2c[nH]c3ccccc23)NC(=O)[C@H](Cc2ccc(O)cc2)NC(=O)[C@H](Cc2ccc(O)cc2)NC(=O)[C@H](Cc2c[nH]c3ccccc23)NC(=O)[C@H](Cc2c[nH]c3ccccc23)NC(=O)[C@H](Cc2ccc(O)cc2)NC(=O)CSC[C@@H](C(=O)NCC(N)=O)NC(=O)[C@H](CCCNC(=N)N)NC(=O)[C@H]([C@@H](C)O)NC(=O)[C@H](CCCNC(=N)N)NC(=O)[C@H](Cc2c[nH]c3ccccc23)NC1=O [10-6] ({CH2CO}-YWWYYWYRDEYLWRTRCG-NH2; thioether N-17)
[1]; SPR conditions as E1
  kd: 0.00489 s⁻¹
[1]
  kon: 22300 M⁻¹ s⁻¹

## CC(C)C[C@@H]1NC(=O)[C@H]([C@@H](C)O)NC(=O)[C@H](CCCCN)NC(=O)[C@H](C)NC(=O)[C@H](Cc2c[nH]c3ccccc23)NC(=O)[C@H](CCCCN)NC(=O)[C@H](C)NC(=O)[C@H](C(C)C)NC(=O)[C@H](CC(N)=O)NC(=O)[C@H]([C@@H](C)O)NC(=O)[C@H](Cc2c[nH]c3ccccc23)NC(=O)[C@H](CC(N)=O)NC(=O)[C@H](Cc2ccc(O)cc2)NC(=O)[C@H](Cc2ccc(O)cc2)NC(=O)[C@H](Cc2ccccc2)NC(=O)[C@H](Cc2ccc(O)cc2)NC(=O)CSC[C@@H](C(=O)NCC(N)=O)NC1=O [6-2] ({CH2CO}-YFYYNWTNVAKWAKTLCG-NH2; thioether N-17)
[1]; SPR conditions as E1
  ka: 0.725 × 10^5 M^–1 s^–1
  kd: 0.0074 s⁻¹
  kd (quoted in text): 7.4 × 10^–3 s^–1
[1]
  kon: 72500 M⁻¹ s⁻¹
[1]; ratio of SPR kd values
  fold slower kd compared to 6–1: 7 fold

## CC(C)C[C@@H]1NC(=O)[C@H](CO)NC(=O)[C@H](Cc2ccccc2)NC(=O)[C@H](Cc2ccc(O)cc2)NC(=O)[C@H](Cc2c[nH]c3ccccc23)NC(=O)[C@H](CCCCN)NC(=O)[C@H](CCCCN)NC(=O)[C@H](CO)NC(=O)[C@H](CC(=O)O)NC(=O)[C@H](Cc2ccc(O)cc2)NC(=O)[C@H](CCC(=O)O)NC(=O)[C@H](Cc2c[nH]cn2)NC(=O)[C@H](Cc2c[nH]c3ccccc23)NC(=O)[C@H](C(C)C)NC(=O)[C@H](CC(C)C)NC(=O)[C@H](Cc2ccc(O)cc2)NC(=O)CSC[C@@H](C(=O)NCC(N)=O)NC1=O [12-5] ({CH2CO}-YLVWHEYDSKKWYFSLCG-NH2; thioether N-17)
[1]; SPR conditions as E1
  kd: 0.002 s⁻¹
[1]
  kon: 130000 M⁻¹ s⁻¹

## CC(C)[C@@H]1NC(=O)[C@H](C)NC(=O)[C@H](CC(=O)O)NC(=O)[C@H](Cc2ccccc2)NC(=O)[C@H](CC(=O)O)NC(=O)[C@H](CCCNC(=N)N)NC(=O)CNC(=O)[C@H]([C@@H](C)O)NC(=O)[C@H](Cc2c[nH]c3ccccc23)NC(=O)[C@H](CO)NC(=O)[C@H](Cc2ccc(O)cc2)NC(=O)[C@H](Cc2ccc(O)cc2)NC(=O)CSC[C@@H](C(=O)NCC(N)=O)NC(=O)[C@H](CCCCN)NC(=O)[C@H](CC(N)=O)NC(=O)[C@H](Cc2c[nH]c3ccccc23)NC(=O)[C@H](CCCCN)NC1=O [14-4] ({CH2CO}-YYSWTGRDFDAVKWNKCG-NH2; thioether N-17)
[1]; SPR conditions as E1
  kd: 0.00198 s⁻¹
[1]
  kon: 798000 M⁻¹ s⁻¹

## CC[C@H](C)[C@@H]1NC(=O)[C@H](Cc2ccc(O)cc2)NC(=O)CSC[C@@H](C(=O)NCC(N)=O)NC(=O)[C@H](CCCNC(=N)N)NC(=O)[C@H](C(C)C)NC(=O)[C@H](Cc2ccc(O)cc2)NC(=O)[C@H](C(C)C)NC(=O)[C@H](Cc2c[nH]c3ccccc23)NC(=O)[C@H](CO)NC(=O)[C@H](CCCCN)NC(=O)[C@H](CO)NC(=O)[C@H](CC(=O)O)NC(=O)[C@H](Cc2ccc(O)cc2)NC(=O)[C@H](C(C)C)NC(=O)[C@H](Cc2ccc(O)cc2)NC(=O)[C@H](Cc2c[nH]c3ccccc23)NC(=O)[C@H](CCC(=O)O)NC1=O [14-6] ({CH2CO}-YIEWYVYDSKSWVYVRCG-NH2; thioether N-17)
[1]; SPR conditions as E1
  kd: 0.00564 s⁻¹
[1]
  kon: 179000 M⁻¹ s⁻¹

## CC(C)[C@@H]1NC(=O)[C@H](CO)NC(=O)CNC(=O)[C@H](CO)NC(=O)[C@H](Cc2c[nH]c3ccccc23)NC(=O)[C@H](CO)NC(=O)[C@H](Cc2ccc(O)cc2)NC(=O)[C@H](Cc2ccc(O)cc2)NC(=O)CSC[C@@H](C(=O)NCC(N)=O)NC(=O)[C@H](CO)NC(=O)[C@H](CC(N)=O)NC(=O)[C@H](Cc2c[nH]c3ccccc23)NC(=O)[C@H](CCCCN)NC(=O)[C@H](C(C)C)NC(=O)[C@H](CO)NC(=O)[C@H](CCC(=O)O)NC(=O)[C@H](CO)NC1=O [10-1] ({CH2CO}-YYSWSGSVSESVKWNSCG-NH2; thioether N-17)
[1]; SPR conditions as E1
  Kd: 10.1 nM
  kd: 0.00878 s⁻¹
  kd (quoted in text): ~10 × 10^–3 s^–1
[1]
  kon: 871000 M⁻¹ s⁻¹

## CC[C@H](C)[C@@H]1NC(=O)[C@H](Cc2ccc(O)cc2)NC(=O)CSC[C@@H](C(=O)NCC(N)=O)NC(=O)[C@@H]2CCCN2C(=O)[C@H](CCCNC(=N)N)NC(=O)[C@H](C(C)C)NC(=O)[C@H](Cc2ccccc2)NC(=O)[C@H](Cc2c[nH]c3ccccc23)NC(=O)[C@H](CC(=O)O)NC(=O)[C@H](CCCCN)NC(=O)[C@H](CO)NC(=O)[C@H](C)NC(=O)[C@H](Cc2ccc(O)cc2)NC(=O)[C@H](C)NC(=O)[C@H](Cc2ccccc2)NC(=O)[C@H](Cc2c[nH]c3ccccc23)NC(=O)[C@H](CO)NC1=O [12-1] ({CH2CO}-YISWFAYASKDWFVRPCG-NH2; thioether N-17)
[1]; SPR conditions as E1
  kd: 0.00254 s⁻¹
  kd (quoted in text): 2.54 × 10^–3 s^–1
[1]
  kon: 79500 M⁻¹ s⁻¹

## {CH2CO}-YIEWNRFNSKLWNCNCCG (thioether N-17; cysteine pairing not given here) [10–4]
[2]
  koff: 0.00809 s⁻¹

B1: 12–2 (peptide)
chain: {CH2CO}-YYSWSGNVSESVKWNSCG-NH2
modifications: thioether N-17
SMILES: CC(C)[C@@H]1NC(=O)[C@H](CC(N)=O)NC(=O)CNC(=O)[C@H](CO)NC(=O)[C@H](Cc2c[nH]c3ccccc23)NC(=O)[C@H](CO)NC(=O)[C@H](Cc2ccc(O)cc2)NC(=O)[C@H](Cc2ccc(O)cc2)NC(=O)CSC[C@@H](C(=O)NCC(N)=O)NC(=O)[C@H](CO)NC(=O)[C@H](CC(N)=O)NC(=O)[C@H](Cc2c[nH]c3ccccc23)NC(=O)[C@H](CCCCN)NC(=O)[C@H](C(C)C)NC(=O)[C@H](CO)NC(=O)[C@H](CCC(=O)O)NC(=O)[C@H](CO)NC1=O
[2]
  koff: 0.00413 s⁻¹

## {CH2CO}-YWWYYWYRDEYLWRTRCG (thioether N-17 (inferred)) [10–6]
[2]
  koff: 0.00489 s⁻¹
